Laboratory results: the NIST ThermoML archive (doi:10.1021/je900969u)
Numbers after ± are expanded uncertainties.

Assays:
[1] = 101 kPa, Liquid
[2] = xn = mol fraction of the nth substance listed; settings: 101 kPa, Liquid

CN1CCNCC1 [N-methylpiperazine]
[1]
Settings	mass density [kg/m3]	viscosity [mPa·s]
298.15 K	899.28 ± 0.85	1.856 ± 0.045
303.15 K	894.9 ± 0.87	1.544 ± 0.037
313.15 K	886.07 ± 0.91	1.25 ± 0.031

CN1CCNCC1 [N-methylpiperazine] + CC1CCCCC1
[2]
Settings	mass density, 298.15 K [kg/m3]	mass density, 303.15 K [kg/m3]	mass density, 313.15 K [kg/m3]	viscosity, 298.15 K [mPa·s]	viscosity, 303.15 K [mPa·s]	viscosity, 313.15 K [mPa·s]
x1 = 0.0988	775.01 ± 1.8	770.65 ± 1.9	761.89 ± 1.9	0.716 ± 0.02	0.676 ± 0.019	0.582 ± 0.017
x1 = 0.1972	785.84 ± 1.7	781.44 ± 1.7	772.64 ± 1.8	0.751 ± 0.02	0.698 ± 0.019	0.604 ± 0.017
x1 = 0.297	797.52 ± 1.6	793.12 ± 1.6	784.26 ± 1.6	0.801 ± 0.021	0.73 ± 0.02	0.634 ± 0.018
x1 = 0.3964	811.57 ± 1.5	805.63 ± 1.5	796.74 ± 1.5	0.867 ± 0.023	0.776 ± 0.021	0.674 ± 0.018
x1 = 0.4953	822.93 ± 1.4	818.51 ± 1.4	809.59 ± 1.4	0.945 ± 0.025	0.84 ± 0.022	0.725 ± 0.019
x1 = 0.5948	836.59 ± 1.3	832.17 ± 1.3	823.26 ± 1.3	1.057 ± 0.027	0.918 ± 0.024	0.791 ± 0.021
x1 = 0.6952	850.68 ± 1.1	846.26 ± 1.2	837.34 ± 1.2	1.19 ± 0.03	1.022 ± 0.026	0.868 ± 0.022
x1 = 0.7969	865.9 ± 1.1	861.49 ± 1.1	852.58 ± 1.1	1.362 ± 0.034	1.164 ± 0.029	0.97 ± 0.024
x1 = 0.8977	881.36 ± 0.95	876.96 ± 0.97	868.08 ± 1	1.585 ± 0.039	1.326 ± 0.032	1.087 ± 0.027
x1 = 1	899.28 ± 0.85	894.9 ± 0.87	886.07 ± 0.91	1.856 ± 0.045	1.544 ± 0.037	1.25 ± 0.031
